For 29 compounds, melting point results are on record in patent US20090069300A1, “ISOQUINOLINYL AND ISOINDOLINYL DERIVATIVES AS HISTAMINE-3 ANTAGONISTS” (Wyeth, priority 2007, published 2009).

Counter-ions that a name gives are not always drawn.

As usually defined, the melting point is the temperature, or range, at which the solid turns liquid.

Compound `C[C@@H]1CCCN1CCN1CCc2cc(-c3ccc(C(=O)NCC4CC4)cc3)ccc2C1=O` (as salt: hydrochloride) [Example 73, N-(cyclopropylmethyl)-4-(2-{2-[(2R)-2-methylpyrrolidin-1-yl]ethyl}-1-oxo-1,2,3,4-tetrahydroisoquinolin-6-yl)benzamide] gave a melting point of 188 to 190 °C.

Compound `C[C@@H]1CCCN1CCN1CCc2cc(-c3ccc(C(=O)NC4CCC4)cc3)ccc2C1=O` (as salt: hydrochloride) [Example 74, N-cyclobutyl-4-(2-{2-[(2R)-2-methylpyrrolidin-1-yl]ethyl}-1-oxo-1,2,3,4-tetrahydroisoquinolin-6-yl)benzamide] gave a melting point of 210 to 211 °C.

Compound `CCNC(=O)c1ccc(-c2ccc3c(c2)CCN(CCN2CCC[C@H]2C)C3=O)cc1` (as salt: hydrochloride) [Example 75, N-ethyl-4-(2-{2-[(2R)-2-methylpyrrolidin-1-yl]ethyl}-1-oxo-1,2,3,4-tetrahydroisoquinolin-6-yl)benzamide] displayed a melting point of 228 to 230 °C.

As to `C[C@@H]1CCCN1CCN1CCc2cc(-c3ccc(C(=O)NC4CC4)cc3)ccc2C1=O` (as salt: hydrochloride) [Example 76, N-cyclopropyl-4-(2-{2-[(2R)-2-methylpyrrolidin-1-yl]ethyl}-1-oxo-1,2,3,4-tetrahydroisoquinolin-6-yl)benzamide], the melting point lay in the range of 255 to 257 °C.

The compound `CC(C)NC(=O)c1ccc(-c2ccc3c(c2)CCN(CCN2CCC[C@H]2C)C3=O)cc1` (as salt: hydrochloride) [Example 77, N-isopropyl-4-(2-{2-[(2R)-2-methylpyrrolidin-1-yl]ethyl}-1-oxo-1,2,3,4-tetrahydroisoquinolin-6-yl)benzamide] had a melting point of 188 to 189 °C.

Take `CNC(=O)c1ccc(-c2ccc3c(c2)CCN(CCN2CCC[C@H]2C)C3=O)cc1` (as salt: hydrochloride) [Example 78, N-methyl-4-(2-{2-[(2R)-2-methylpyrrolidin-1-yl]ethyl}-1-oxo-1,2,3,4-tetrahydroisoquinolin-6-yl)benzamide]: the melting point is 258 to 260 °C.

`O=C(c1ccc(-c2ccc3c(c2)CCN(CCN2CCCC2)C3=O)cc1)N1CCCCC1` (as salt: hydrochloride) [Example 79, 6-[4-(piperidin-1-ylcarbonyl)phenyl]-2-(2-pyrrolidin-1-ylethyl)-3,4-dihydroisoquinolin-1(2H)-one] yielded a melting point of 240 to 241 °C.

Compound `C[C@@H]1CCCN1CCN1CCc2cc(-c3ccc(C(=O)NC4CCCC4)cc3)ccc2C1=O` (as salt: hydrochloride) [Example 80, N-cyclopentyl-4-(2-{2-[(2R)-2-methylpyrrolidin-1-yl]ethyl}-1-oxo-1,2,3,4-tetrahydroisoquinolin-6-yl)benzamide] displayed a melting point of 260 to 262 °C.

Compound `C[C@H]1CCCN1C(=O)c1ccc(-c2ccc3c(c2)CCN(CCN2CCCC2)C3=O)cc1` (as salt: hydrochloride) [Example 81, 6-(4-{[(2S)-2-methylpyrrolidin-1-yl]carbonyl}phenyl)-2-(2-pyrrolidin-1-ylethyl)-3,4-dihydroisoquinolin-1(2H)-one] registered a melting point of 171 to 172 °C.

`C[C@@H]1CCCN1C(=O)c1ccc(-c2ccc3c(c2)CCN(CCN2CCCC2)C3=O)cc1` (as salt: hydrochloride) [Example 82, 6-(4-{[(2R)-2-methylpyrrolidin-1-yl]carbonyl}phenyl)-2-(2-pyrrolidin-1-ylethyl)-3,4-dihydroisoquinolin-1(2H)-one] yielded a melting point of 170 to 171 °C.

Take `CNC(=O)c1ccc(-c2ccc3c(c2)C(=O)N(CCN2CCC[C@H]2C)CC3)cc1` (as salt: hydrochloride) [Example 83, N-methyl-4-(2-{2-[(2R)-2-methylpyrrolidin-1-yl]ethyl}-1-oxo-1,2,3,4-tetrahydroiso-quinolin-7-yl)benzamide]: the melting point was in the range of 262 to 263 °C.

Consider `CC(C)NC(=O)c1ccc(-c2ccc3c(c2)C(=O)N(CCN2CCC[C@H]2C)CC3)cc1` (as salt: hydrochloride) [Example 85, N-isopropyl-4-(2-{2-[(2R)-2-methylpyrrolidin-1-yl]ethyl}-1-oxo-1,2,3,4-tetrahydroiso-quinolin-7-yl)benzamide], for which the melting point was 248 to 250 °C.

The compound `C[C@@H]1CCCN1CCN1CCc2ccc(-c3ccc(C(=O)N4CCCC4)cc3)cc2C1=O` (as salt: hydrochloride) [Example 86, 2-{2-[(2R)-2-methylpyrrolidin-1-yl]ethyl}-7-[4-(pyrrolidin-1-ylcarbonyl)phenyl]-3,4-dihydroisoquinolin-1(2H)-one] gave a melting point of 214 to 215 °C.

Compound `CNC(=O)c1ccc(Oc2ccc3c(c2)CCN(CCN2CCCC2)C3=O)nc1` (as salt: hydrochloride) [Example 101, N-Methyl-6-(1-oxo-2-(2-(pyrrolidin-1-yl)ethyl)-1,2,3,4-tetrahydro-isoquinolin-6-yloxy)nicotinamide hydrochloride] came in with a melting point of 228 to 230 °C.

Consider `CON(C)C(=O)c1ccc(-c2ccc3c(c2)CCN(CCN2CCCC2)C3=O)cc1` (as salt: hydrochloride) [Example 102, N-methoxy-N-methyl-4-(1-oxo-2-(2-(pyrrolidin-1-yl)ethyl)-1,2,3,4-tetrahydroisoqui-nolin-6-yl)benzamide], for which the melting point lay within 190 to 191 °C.

As for `C[C@@H]1CCCN1CCN1CCc2cc(OCc3ccc(C#N)cc3)ccc2C1=O` (as salt: hydrochloride) [Example 120, (R)-4-((2-(2-(2-Methylpyrrolidin-1-yl)ethyl)-1-oxo-1,2,3,4-tetra-hydroisoquinolin-6-yloxy)methyl)benzonitrile hydrochloride], the melting point was in the range of 212 to 214 °C.

`O=C(NCc1cccs1)c1ccc(-c2ccc3c(c2)CCN(CCN2CCCC2)C3=O)cc1` (as salt: hydrochloride) [Example 121, 4-[1-oxo-2-(2-pyrrolidin-1-ylethyl)-1,2,3,4-tetrahydroisoquinolin-6-yl]-N-(2-thienylmethyl)benzamide] returned a melting point of 211 to 213.5 °C.

Regarding `O=C(c1ccc(-c2ccc3c(c2)CCN(CCN2CCCC2)C3=O)cc1)N1CCOCC1` (as salt: hydrochloride) [Example 122, 6-[4-(morpholin-4-ylcarbonyl)phenyl]-2-(2-pyrrolidin-1-ylethyl)-3,4-dihydroisoquinolin-1(2H)-one], the melting point lay within 272 to 274 °C.

Consider `O=C(NCCCl)c1ccc(-c2ccc3c(c2)CCN(CCN2CCCC2)C3=O)cc1` (as salt: hydrochloride) [Example 123, N-(2-chloroethyl)-4-[1-oxo-2-(2-pyrrolidin-1-ylethyl)-1,2,3,4-tetrahydroisoquinolin-6-yl]benzamide], for which the melting point is 236 to 237 °C.

For `CCN(C)C(=O)c1ccc(-c2ccc3c(c2)CCN(CCN2CCCC2)C3=O)cc1` (as salt: hydrochloride) [Example 124, N-ethyl-N-methyl-4-[1-oxo-2-(2-pyrrolidin-1-ylethyl)-1,2,3,4-tetrahydroisoquinolin-6-yl]benzamide], the melting point is 200 to 201 °C.

In the case of `O=C(NCc1ccco1)c1ccc(-c2ccc3c(c2)CCN(CCN2CCCC2)C3=O)cc1` (as salt: hydrochloride) [Example 125, N-(2-furylmethyl)-4-[1-oxo-2-(2-pyrrolidin-1-ylethyl)-1,2,3,4-tetrahydroisoquinolin-6-yl]benzamide], the melting point fell in the range of 211 to 213 °C.

The compound `COC[C@H](C)NC(=O)c1ccc(-c2ccc3c(c2)CCN(CCN2CCCC2)C3=O)cc1` (as salt: hydrochloride) [Example 126, N-[(1S)-2-methoxy-1-methylethyl]-4-[1-oxo-2-(2-pyrrolidin-1-ylethyl)-1,2,3,4-tetrahydroisoquinolin-6-yl]benzamide] gave a melting point of 232 to 233 °C.

`COC[C@@H]1CCCN1C(=O)c1ccc(-c2ccc3c(c2)CCN(CCN2CCCC2)C3=O)cc1` (as salt: hydrochloride) [Example 128, 6-(4-{[(2S)-2-(methoxymethyl)pyrrolidin-1-yl]carbonyl}phenyl)-2-(2-pyrrolidin-1-ylethyl)-3,4-dihydroisoquinolin-1(2H)-one]: the melting point lay in the range of 193 to 195 °C.

`O=C(Nc1nccs1)c1ccc(-c2ccc3c(c2)CCN(CCN2CCCC2)C3=O)cc1` (as salt: hydrochloride) [Example 130, 4-[1-oxo-2-(2-pyrrolidin-1-ylethyl)-1,2,3,4-tetrahydroisoquinolin-6-yl]-N-1,3-thiazol-2-ylbenzamide]: the melting point lay within 284 to 285 °C.

Compound `CN(C)C(=O)c1ccc(-c2ccc3c(c2)CCN(CCN2CCCC2)C3=O)c(F)c1` (as salt: hydrochloride) [Example 137, 3-fluoro-N,N-dimethyl-4-[1-oxo-2-(2-pyrrolidin-1-ylethyl)-1,2,3,4-tetrahydroisoquinolin-6-yl]benzamide] came in with a melting point of 228 to 229 °C.

With `O=C(c1ccc(-c2ccc3c(c2)CCN(CCN2CCCC2)C3=O)c(F)c1)N1CCCC1` (as salt: hydrochloride) [Example 138, 6-[2-fluoro-4-(pyrrolidin-1-ylcarbonyl)phenyl]-2-(2-pyrrolidin-1-ylethyl)-3,4-dihydroisoquinolin-1(2H)-one], the melting point was 225 to 226 °C.

For `CNC(=O)c1ccc(-c2ccc3c(c2)CCN(CCN2CCCC2)C3=O)c(F)c1` (as salt: hydrochloride) [Example 139, 3-fluoro-N-methyl-4-[1-oxo-2-(2-pyrrolidin-1-ylethyl)-1,2,3,4-tetrahydroisoquinolin-6-yl]benzaimde], the melting point was 188 to 190 °C.

In the case of `CCNC(=O)c1ccc(-c2ccc3c(c2)CCN(CCN2CCCC2)C3=O)c(F)c1` (as salt: hydrochloride) [Example 140, N-ethyl-3-fluoro-4-[1-oxo-2-(2-pyrrolidin-1-ylethyl)-1,2,3,4-tetrahydroisoquinolin-6-yl]benzamide], the melting point lay within 209 to 210 °C.

Compound `CNC(=O)c1ccc(-c2ccc3c(c2)CCN(CCCN2CCCC2)C3=O)cc1` (as salt: hydrochloride) [Example 141, N-methyl-4-[1-oxo-2-(3-pyrrolidin-1-ylpropyl)-1,2,3,4-tetrahydroisoquinolin-6-yl]benzamide] came in with a melting point of 158 to 159 °C.
